Source: US8349215B2, “Corrosion inhibitors having increased biological degradability and minimized toxicity” (Clariant Finance (BVI) Limited, priority 2008, dated 2013)

What was measured:
[1] = Biodegradability (OECD 306)
Skeletonema costatum = assay: Toxicity (EC50 Skeletonema costatum); format: cell-based

| SMILES | Biodegradability [1] [%] | Toxicity EC50 (Skeletonema costatum) [µg/mL] |
| --- | --- | --- |
| CCCCCCCC/C=C\CCCCCCCCN1CC(C(=O)O)CC1=O.NCCO (stereo not shown) [Compound from example 5, N-oleyl-5-oxopyrrolidine-3-carboxylic acid monoethanolammonium salt] | 78 | >100 |
| CCCCCCCCN1CC(C(=O)O)CC1=O.NCCO (stereo not shown) [Compound from example 1, N-octyl-5-oxopyrrolidine-3-carboxylic acid monoethanolammonium salt] | 85 | >100 |
